Experiment [1] concerns IL-4 stimulated CD23 upregulation in human Ramos B cells (JAK-1/JAK-3, Stat-6). The experiment is described as follows: Assay for Ramos B-Cell Line Stimulated with IL-4 (CD23 upregulation, FACS). The class given is cell-based. The note with it: Table III Example 3. In short, it runs like this: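 Flow cytometry of CD23 staining after 20-24 h IL-4 stimulation (50 units/mL final) of human Ramos B cells in RPMI with 5% serum. Cells, 5×10^4 per point, received compound or DMSO vehicle for 1 h at 37° C prior to stimulation.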

The subject of experiment [2] is primary human T-cells (IL-2 induced proliferation, JAK-1/JAK-3, Stat-5). The experiment is described as follows: Primary Human T-Cell Proliferation Assay Stimulated with IL-2 (CellTiter-Glo). The class given is cell-based. The settings on record: Table III Example 4. The method in brief:
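Read-out is intracellular ATP luminescence (CellTiter-Glo) after 72 h at 37 °C of IL-2-driven growth. Cells, pre-stimulated via TCR and CD28 then washed free of IL-2, were resuspended in Yssel's medium, given 80 U/mL IL-2 in the cell suspension plus duplicate compound; unstimulated wells lacked IL-2.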
For orientation: In ATP-based viability assays light output follows the ATP content of the culture.

The subject of experiment [3] is IFNγ induced ICAM-1 (CD54) up-regulation in U937 human monocytic cells (JAK/Stat pathway). The experiment is described as follows: U937 IFNγ ICAM1 FACS Assay. In kind it is cell-based. The settings on record: Table III Example 6; 10 ng/mL IFNγ, 18-24 hours. In short, it runs like this: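 Flow cytometry gave ICAM-1 (CD54) up-regulation as ICAM-APC geometric mean within the live-cell gate, alongside % viable cells. Human monocytic U937 cells received 3-fold serial compound dilutions for 30 min at 37 °C, followed by IFNγ stimulation lasting 18–24 h. Dose curves yielded EC50s.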

Experiment [4] has as its system IFNγ induced ICAM-1 (CD54) up-regulation in A549 lung epithelial cells (JAK/Stat pathway). The experiment is described as follows: A549 Epithelial Line Stimulated with IFNγ (ICAM-1 surface expression, flow cytometry). The class given is cell-based, human. The note with it: Table III Example 5. The source says:
The activity of the compounds of the invention may additionally be characterized by assaying the effect of the 2,4-pyrimidinediamine compounds described herein on A549 lung epithelial cells and U937 cells. A549 lung epithelial cells and U937 cells up-regulate ICAM-1 (CD54) surface expression in response to a variety of different stimuli. Therefore, using ICAM-1 expression as readout, test compound effects on different signaling pathways can be assessed in the same cell type. Stimulation with IL-1β through the IL-1β receptor activates the TRAF6/NFκB pathway resulting in up-regulation of ICAM-1. IFNγ induces ICAM-1 up-regulation through activation of the JAK1/JAK2 pathway. The up-regulation of ICAM-1 can be quantified by flow cytometry across a compound dose curve and EC50 values are calculated. Exemplary assays of this type are described in greater detail in Examples 5 and 6.
A549 lung epithelial cells up-regulate ICAM-1 (CD54) surface expression in response to a variety of different stimuli. Therefore, using ICAM-1 expression as readout, compound effects on different signaling pathways can be assessed in the same cell type. IFNγ up-regulates ICAM-1 through activation of the JAK/Stat pathway. In this example, the up-regulation of ICAM-1 by IFNγ was assessed.
The A549 lung epithelial carcinoma cell line originated from the American Type Culture Collection. Routine culturing was with F12K media (Mediatech Inc., Lenexa, Kans., Cat. No. 10-025-CV) with 10% fetal bovine serum, 100 I.U. penicillin and […] streptomycin (complete F12k media). Cells were incubated in a humidified atmosphere of 5% CO2 at 37° C. Prior to use in the assay, A549 cells were washed with PBS and trypsinized (Mediatech Inc., Cat. No. 25-052-CI) to lift the cells. The trypsin cell suspension was neutralized with complete F12K media and centrifuged to pellet the cells. The cell pellet was resuspended in complete F12K media at a concentration of 2.0×10^5/mL. Cells were seeded at 20,000 per well, 100 μL total volume, in a flat bottom tissue culture plate and allowed to adhere overnight.
On day two, A549 cells were pre-incubated with a 2,4-pyrimidinediamine test compound or DMSO (control) (Sigma-Aldrich, St. Louis, Mo., Catalog No. D2650) for 1 hour. The cells were then stimulated with IFNγ (75 ng/mL) (Peprotech Inc., Rocky Hill, N.J., Cat. No. 300-02) and allowed to incubate for 24 hours. The final test compound dose range was 30 μM to 14 nM in 200 μL F12K media containing 5% FBS, 0.3% DMSO.
On day three, the cell media was removed and the cells were washed with 200 μL PBS (phosphate buffered saline). Each well was trypsinized to dissociate the cells, then neutralized by addition of 200 μL complete F12K media. Cells were pelleted and stained with an APC conjugated mouse anti-human ICAM-1 (CD54) (BD Pharmingen, San Diego, Calif., Catalog #559771) antibody for 20 minutes at 4° C. Cells were washed with ice cold FACS buffer (PBS+2% FBS) and surface ICAM-1 expression was analyzed by flow cytometry. Detection was performed using a BD LSR I System Flow Cytometer, purchased from BD Biosciences of San Jose, Calif. Events were gated for live scatter and the geometric mean was calculated (Becton-Dickinson CellQuest software version 3.3, Franklin Lakes, N.J.). Geometric means were plotted against the compound concentration to generate a dose response curve.
For orientation: Flow cytometry measures light scatter and fluorescence of single cells or particles in a stream.

One may read the IC50 as the concentration at which inhibition is half-maximal. A high value points to weaker potency. Regarding `Cc1ccc(Nc2ncc(C)c(Nc3cccc(CN(C)S(=O)(=O)C4CC4)c3)n2)cc1S(N)(=O)=O` [Compound I-122, N2-(3-aminosulfonyl-4-methyl)phenyl-N4-[3-(N-cyclopropylsulfonyl-N-methyl)aminomethyl]phenyl-5-methyl-2,4-pyrimidinediamine], the IC50 in experiment [1] turned out to be 0.0816 µM; in experiment [2], 0.0883 µM; in experiment [3], 0.155 µM.

In the case of `Cc1cnc(Nc2ccc(S(N)(=O)=O)cc2)nc1Nc1ccc(CCNS(=O)(=O)C2CC2)cc1` [Compound I-53, N2-(4-aminosulfonyl)phenyl-N4-[4-(2-cyclopropylsulfonylamino)ethyl]phenyl-5-methyl-2,4-pyrimidinediamine], the half-inhibitory concentration (IC50) in experiment [1] was 0.131 µM; in experiment [2] it was 0.175 µM; in experiment [3], 0.605 µM.

For `CCS(=O)(=O)NCc1ccc(Nc2nc(Nc3cccc(S(N)(=O)=O)c3)ncc2F)cc1Cl` [Compound I-75, N2-(3-aminosulfonyl)phenyl-N4-(3-chloro-4-ethylsulfonylaminomethyl)phenyl-5-fluoro-2,4-pyrimidinediamine], the results for the IC50 in experiment [1], in experiment [2] and in experiment [3] were 0.181 µM, 0.246 µM and 1.2 µM, respectively.

As for `CCS(=O)(=O)NCc1cccc(Nc2nc(Nc3ccc(S(N)(=O)=O)cc3)ncc2F)c1` [Compound I-11, N2-(4-aminosulfonyl)phenyl-N4-(3-ethylsulfonylaminomethyl)phenyl-5-fluoro-2,4-pyrimidinediamine], the IC50 in experiment [1] turned out to be 0.25 µM; in experiment [2], 0.588 µM; in experiment [3], 2.79 µM.

On to `Cc1ccc(Nc2ncc(F)c(Nc3ccc(CNS(=O)(=O)c4sc(N)nc4C)cc3)n2)cc1S(N)(=O)=O` [Compound I-43, N4-[4-(2-amino-4-methylthiazol-5-yl)sulfonylaminomethyl]phenyl-N2-(3-aminosulfonyl-4-methyl)phenyl-5-fluoro-2,4-pyrimidinediamine], for which the IC50 in experiment [1] worked out at 0.537 µM; in experiment [2] it was 1.79 µM; in experiment [3] it was 37.8 µM.

For `Cc1ccc(Nc2ncc(C)c(Nc3cccc(CNS(=O)(=O)C4CC4)c3)n2)cc1S(=O)(=O)NC(C)C` [Compound I-209, N4-(3-cyclopropylsulfonylaminomethyl)phenyl-N2-(3-isopropylaminosulfonyl-4-methyl)phenyl-5-methyl-2,4-pyrimidinediamine], the IC50 in experiment [1] worked out at 0.113 µM; in experiment [2] it was 0.131 µM; in experiment [3] it was 0.529 µM.

As to `CCCN(Cc1ccc(Nc2nc(Nc3ccc(S(N)(=O)=O)cc3)ncc2F)cc1)S(=O)(=O)CC` [Compound I-17, N2-(4-aminosulfonyl)phenyl-N4-[4-(N-ethylsulfonyl-N-propylamino)methyl]phenyl-5-fluoro-2,4-pyrimidinediamine], the IC50 stood at 0.164 µM in experiment [1], 1.07 µM in experiment [2] and 8.24 µM in experiment [4].

As to `Cc1cnc(Nc2ccc(S(N)(=O)=O)cc2)nc1Nc1ccc(CNS(=O)(=O)CC(F)(F)F)cc1` [Compound I-96, N2-(4-aminosulfonyl)phenyl-5-methyl-N4-(4-trifluoroethylsulfonylaminomethyl)phenyl-2,4-pyrimidinediamine], the IC50 in experiment [1] is 0.0744 µM; in experiment [2] it was 0.105 µM; in experiment [3], 3.67 µM.

Take `CC(C)S(=O)(=O)NCc1ccc(Nc2nc(Nc3ccc(S(N)(=O)=O)cc3)ncc2F)cc1` [Compound I-65, N2-(4-aminosulfonyl)phenyl-5-fluoro-N4-(4-isopropylsulfonylaminomethyl)phenyl-2,4-pyrimidinediamine]: the values for the IC50 in experiment [1], in experiment [2] and in experiment [4] were 0.211 µM, 0.634 µM and 10.4 µM, respectively.

Consider `Cc1cnc(Nc2cccc(S(=O)(=O)NC3CCCC3)c2)nc1Nc1ccc(CNS(=O)(=O)C2CC2)cc1` [Compound I-170, N2-(3-cyclopentylaminosulfonyl)phenyl-N4-(4-cyclopropylsulfonylaminomethyl)phenyl-5-methyl-2,4-pyrimidinediamine], for which the IC50 was 0.136 µM in experiment [1], 0.172 µM in experiment [2] and 0.238 µM in experiment [3].

Regarding `Cc1cnc(Nc2ccc(S(N)(=O)=O)cc2)nc1Nc1ccc(CNS(=O)(=O)C2CC2)cc1` [Compound I-45, N2-(4-aminosulfonyl)phenyl-N4-(4-cyclopropylsulfonylaminomethyl)phenyl-5-methyl-2,4-pyrimidinediamine], the IC50 in experiment [1] was 0.0598 µM; in experiment [2], 0.0293 µM; in experiment [3] it was 0.284 µM.

As to `NS(=O)(=O)c1cccc(Nc2ncc(F)c(Nc3cccc(CNS(=O)(=O)C4CC4)c3)n2)c1` [Compound I-33, N2-(3-aminosulfonyl)phenyl-N4-(3-cyclopropylsulfonylaminomethyl)phenyl-5-fluoro-2,4-pyrimidinediamine], the IC50 in experiment [1] worked out at 0.102 µM; in experiment [2] it was 0.315 µM; in experiment [3] it was 1.41 µM.
